Results: patent US10538512B2, “Aminoacylindazole immunomodulators for treatment of autoimmune diseases” (The Rockefeller University, priority 2016, dated 2020)

Molecular target: T1, Human FXIIa (Homo sapiens, UniProt P00748)
T1 construct: active coagulation factor XII (FXIIa); purchased Enzyme Research Labs
T1 sequence (P00748 373-615 limits assumed): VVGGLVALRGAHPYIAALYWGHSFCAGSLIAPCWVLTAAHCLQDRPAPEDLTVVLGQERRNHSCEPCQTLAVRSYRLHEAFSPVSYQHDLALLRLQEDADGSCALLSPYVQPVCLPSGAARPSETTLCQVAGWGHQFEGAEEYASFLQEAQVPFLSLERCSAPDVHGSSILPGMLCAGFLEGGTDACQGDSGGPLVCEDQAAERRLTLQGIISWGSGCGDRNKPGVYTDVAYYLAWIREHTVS
T1 sequence (P00748 20-372 partner limits assumed): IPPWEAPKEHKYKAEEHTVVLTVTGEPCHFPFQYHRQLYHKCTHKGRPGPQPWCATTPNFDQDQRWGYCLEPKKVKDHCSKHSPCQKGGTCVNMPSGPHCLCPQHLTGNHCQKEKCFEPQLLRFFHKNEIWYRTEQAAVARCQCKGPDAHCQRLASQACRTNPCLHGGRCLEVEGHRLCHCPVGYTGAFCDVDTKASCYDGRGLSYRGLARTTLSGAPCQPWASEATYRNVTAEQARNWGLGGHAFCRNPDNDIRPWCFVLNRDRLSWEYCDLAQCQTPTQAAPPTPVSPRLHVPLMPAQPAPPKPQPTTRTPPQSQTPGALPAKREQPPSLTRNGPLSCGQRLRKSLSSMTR
Assay: Factor XIIa (FXIIa) inhibitory activity, chromogenic substrate assay
Type: biochemical
Conditions: Human FXIIa 12.5 nM, Pefachrome XIIa 400 μM, 10 min preincubation
Description: Factor XIIa (FXIIa) Inhibitory Activity:
In a 96-well clear bottom plate, 80 μl of assay buffer was added to each well. Assay buffer consists of 0.5× Hank's Balanced Salt Solution (Invitrogen), buffered with 25 mM HEPES pH 7.4 (Invitrogen) and 0.5× Tris-buffered saline with Tween-20 0.05% (Santa Cruz Biotechnology). Test compounds were first dissolved in DMSO (Sigma) and then 4 μl were added to test wells containing assay buffer. Serial dilutions using an automated multi-channel pipette were used to generate a concentration range of approximately 1-100 μM. […] 80 μl of this enzyme solution was added to the assay wells. The enzyme/compound mixtures were incubated for 10 minutes at room temperature. Chromogenic substrate (Pefachrome XIIa; Enzyme Research Labs) was added to assay wells at a final concentration of 400 μM. The assay plate was spun for 1 minute at 1500 g and then read at 37° C. in a SpectraMax M2 plate reader (λ=405 nm). Activity was quantified as the rate of change in absorbance, which corresponds to the rate of substrate cleavage.

| Structure (SMILES) | IC50 |
| --- | --- |
| Nc1c2c(nn1C(=O)[C@@H]1CCNc3ccc(F)cc31)CC[C@H](F)C2 (single isomer, unassigned) [Example 141, ((5S*)-3-amino-5-fluoro-4,5,6,7-tetrahydroindazol-2-yl)((4R*)-6-fluoro-1,2,3,4-tetrahydroquinolin-4-yl)methanone] | 17 µM |
| Nc1nn(C(=O)C2CCNc3ccc(F)cc32)c2c1CC(F)CC2 (single isomer, unassigned) [Example 142, ((5S*)-3-amino-5-fluoro-4,5,6,7-tetrahydroindazol-1-yl)((4R/S)-6-fluoro-1,2,3,4-tetrahydroquinolin-4-yl)methanone] | 65 µM |
| Nc1c2c(nn1C(=O)[C@@H]1CCNc3ccc(Cl)cc31)CC[C@H](O)C2 (single isomer, unassigned) [Example 144, ((5S*)-3-amino-5-hydroxy-4,5,6,7-tetrahydroindazol-2-yl)((4R*)-6-chloro-1,2,3,4-tetrahydroquinolin-4-yl)methanone] | 9 µM |
| Nc1nn(C(=O)[C@@H]2CCNc3ccc(Cl)cc32)c2c1C[C@@H](O)CC2 (single isomer, unassigned) [Example 145, ((5S*)-3-amino-5-hydroxy-4,5,6,7-tetrahydroindazol-1-yl)((4R*)-6-chloro-1,2,3,4-tetrahydroquinolin-4-yl)methanone] | > 80 µM |
| Nc1nn(C(=O)[C@H]2CCNc3ccc(Cl)cc32)c2c1C[C@@H](O)CC2 (single isomer, unassigned) [Example 146, ((5S*)-3-amino-5-hydroxy-4,5,6,7-tetrahydroindazol-1-yl)((4S*)-6-chloro-1,2,3,4-tetrahydroquinolin-4-yl)methanone] | > 80 µM |
| Nc1c2c(nn1C(=O)[C@@H]1CCNc3ccc(Cl)cc31)CC[C@@H](O)C2 (single isomer, unassigned) [Example 147, ((5R*)-3-amino-5-hydroxy-4,5,6,7-tetrahydroindazol-2-yl)((4R*)-6-chloro-1,2,3,4-tetrahydroquinolin-4-yl)methanone] | 33 µM |
| Nc1nn(C(=O)[C@@H]2CCNc3ccc(Cl)cc32)c2c1C[C@H](O)CC2 (single isomer, unassigned) [Example 149, ((5R*)-3-amino-5-hydroxy-4,5,6,7-tetrahydroindazol-1-yl)((4R*)-6-chloro-1,2,3,4-tetrahydroquinolin-4-yl)methanone] | > 40 µM |
| Nc1nn(C(=O)[C@H]2CCNc3ccc(Cl)cc32)c2c1C[C@H](O)CC2 (single isomer, unassigned) [Example 150, ((5R*)-3-amino-5-hydroxy-4,5,6,7-tetrahydroindazol-1-yl)((4S*)-6-chloro-1,2,3,4-tetrahydroquinolin-4-yl)methanone] | 23 µM |
| Nc1c2c(nn1C(=O)C1CCNc3ccc(F)cc31)CCC(F)(F)C2 (single isomer, unassigned) [Example 174, (R*)-(3-amino-5,5-difluoro-4,5,6,7-tetrahydroindazol-2-yl)(6-fluoro-1,2,3,4-tetrahydroquinolin-4-yl)methanone] | > 80 µM |
| CO[C@H]1CCc2nn(C(=O)[C@@H]3CCNc4ccc(F)cc43)c(N)c2C1 (single isomer, unassigned) [Example 176, ((5S*)-3-amino-5-methoxy-4,5,6,7-tetrahydroindazol-2-yl)((4R*)-6-fluoro-1,2,3,4-tetrahydroquinolin-4-yl)methanone] | > 100 µM |
| CO[C@@H]1CCc2nn(C(=O)[C@H]3CCNc4ccc(F)cc43)c(N)c2C1 (single isomer, unassigned) [Example 179, ((5R*)-3-amino-5-methoxy-4,5,6,7-tetrahydroindazol-2-yl)((4S*)-6-fluoro-1,2,3,4-tetrahydroquinolin-4-yl)methanone] | 28 µM |
| Nc1c2c(nn1C(=O)[C@@H]1CCNc3ccc(F)cc31)C[C@@H](O)CC2 (single isomer, unassigned) [Example 182, ((6S*)-3-amino-6-hydroxy-4,5,6,7-tetrahydroindazol-2-yl)((4R*)-6-fluoro-1,2,3,4-tetrahydroquinolin-4-yl)methanone] | > 100 µM |
